Test results taken from ChEMBL document CHEMBL2074558, “rOCT2 is a basolateral potential-driven carrier, not an organic cation/proton exchanger” (Am J Physiol, 1999).
Values belong to the compound of their own block, whether it stands above or below them.

What was measured:
Type in all cases: functional, cell-based
[1] = target: T1, Solute carrier family 22 member 2 (Rattus norvegicus, UniProt Q9R0W2); assay: TP_TRANSPORTER: TEA uptake (TEA: 200 uM, Quinine: 200 uM) in Xenopus laevis oocytes; conditions: oocyte
T1 sequence (Q9R0W2 whole entry): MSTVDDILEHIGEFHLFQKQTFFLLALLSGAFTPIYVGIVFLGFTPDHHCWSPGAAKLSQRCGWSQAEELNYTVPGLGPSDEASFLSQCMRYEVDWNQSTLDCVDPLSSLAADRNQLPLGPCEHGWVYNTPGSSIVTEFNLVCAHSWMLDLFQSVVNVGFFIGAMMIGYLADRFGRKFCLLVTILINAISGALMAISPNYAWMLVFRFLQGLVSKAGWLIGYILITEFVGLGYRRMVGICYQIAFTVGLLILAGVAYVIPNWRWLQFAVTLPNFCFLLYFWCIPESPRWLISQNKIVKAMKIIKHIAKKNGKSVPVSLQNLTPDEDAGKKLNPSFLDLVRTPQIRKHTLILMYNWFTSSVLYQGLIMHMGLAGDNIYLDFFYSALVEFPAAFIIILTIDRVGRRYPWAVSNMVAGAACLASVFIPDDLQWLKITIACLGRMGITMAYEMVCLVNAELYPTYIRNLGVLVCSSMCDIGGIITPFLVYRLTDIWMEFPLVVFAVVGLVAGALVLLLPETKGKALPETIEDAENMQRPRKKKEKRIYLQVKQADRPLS

[2] = target: T1, Solute carrier family 22 member 2; assay: TP_TRANSPORTER: inhibition of TEA uptake (apical to cell)(TEA: 100 uM, Quinine: 200 uM) in OCT2-expressing MDCK cells; conditions: dog
[3] = target: T1, Solute carrier family 22 member 2; assay: TP_TRANSPORTER: inhibition of TEA uptake (apical to cell)(TEA: 100 uM, NMN: 5000 uM) in OCT2-expressing MDCK cells; conditions: dog
[4] = target: T1, Solute carrier family 22 member 2; assay: TP_TRANSPORTER: TEA uptake (TEA: 200 uM, Quinacrine: 200 uM) in Xenopus laevis oocytes; conditions: oocyte
[5] = target: T1, Solute carrier family 22 member 2; assay: TP_TRANSPORTER: inhibition of TEA uptake (apical to cell)(TEA: 100 uM, Quinacrine: 200 uM) in OCT2-expressing MDCK cells; conditions: dog

Activity [1]: inhibitor [+]
Activity [2]: inhibitor [+]
SMILES: C=C[C@H]1C[N@@]2CC[C@H]1C[C@H]2[C@H](O)c1ccnc2ccc(OC)cc12 [QUININE]

Activity [3]: inhibitor [+]
SMILES: CNC(=O)c1cccnc1 [NICOTINYL METHYLAMIDE]

Activity [4]: inhibitor [+]
Activity [5]: inhibitor [+]
SMILES: CCN(CC)CCCC(C)Nc1c2ccc(Cl)cc2nc2ccc(OC)cc12 (stereo not given) [QUINACRINE]
